# Experimental data: patent US10925856B2, “Methods and compositions involving bucindolol for the treatment of atrial fibrillation” (priority 2018, dated 2021)
# Marks after values point to notes of the source that are not given here.
# Tested on: plasma norepinephrine
# Assay: Plasma norepinephrine (HPLC with electrochemical detection)
# Details: for Norepinephrine, ΔWeek 12 Mean ± SEM / Norepinephrine, ΔWeek 12 Median / Norepinephrine, ΔWeek 24 Mean ± SEM / Norepinephrine, ΔWeek 24 Median: change from baseline
# [1] = Europe excluding Hungary (n = 48)
smiles,measurement,setting,value
"CC(C)(Cc1c[nH]c2ccccc12)NCC(O)COc1ccccc1C#N (stereo not shown) [bucindolol, 2-(3-(1-(1H-indol-3-yl)-2-methylpropan-2-ylamino)-2-hydroxypropoxy)benzonitrile]","Plasma norepinephrine, change from baseline to Week 4, Mean ±SEM",Canada,-59 pg/mL
same,"Plasma norepinephrine, change from baseline to Week 4, Median",Canada,-1 pg/mL
same,"Norepinephrine, Baseline Mean ± SD",Canada (n = 59),642 ± 341 pg/mL
same,"Norepinephrine, Baseline Median",Canada (n = 59),522 pg/mL
same,"Norepinephrine, Week 12 Mean ± SD",Canada (n = 59),528 ± 252 pg/mL
same,"Norepinephrine, Week 12 Median",Canada (n = 59),484 pg/mL
same,"Norepinephrine, Week 24 Mean ± SD",Canada (n = 59),623 ± 276 pg/mL
same,"Norepinephrine, Week 24 Median",Canada (n = 59),564 pg/mL
same,"Change in NE at Week 4, median (Q1, Q3)",Entire Cohort,"−101 (−241, 43)* pg/ml"
same,"Plasma norepinephrine, Week 4 Mean",Entire Cohort,563 pg/mL
same,"Plasma norepinephrine, Week 4 Median",Entire Cohort,500 pg/mL
same,"Plasma norepinephrine, change from baseline to Week 4, Mean ±SEM",Entire Cohort,-124 ± 26 pg/mL
same,"Plasma norepinephrine, change from baseline to Week 4, Median",Entire Cohort,-101 pg/mL
same,"Norepinephrine, Baseline Mean ± SD",Entire Cohort (n = 267),682 ± 349 pg/mL
same,"Norepinephrine, Baseline Median",Entire Cohort (n = 267),607 pg/mL
same,"Norepinephrine, Week 12 Mean ± SD",Entire Cohort (n = 267),570 ± 275 pg/mL
same,"Norepinephrine, Week 12 Median",Entire Cohort (n = 267),520 pg/mL
same,"Norepinephrine, Week 24 Mean ± SD",Entire Cohort (n = 267),631 ± 329 pg/mL
same,"Norepinephrine, Week 24 Median",Entire Cohort (n = 267),545 pg/mL
same,"Plasma norepinephrine, change from baseline to Week 4, Mean ±SEM","Entire Cohort, listed as Buc",-124 pg/mL
same,"Plasma norepinephrine, Week 4 Mean",Europe excluding Hungary,604 pg/mL
same,"Plasma norepinephrine, Week 4 Median",Europe excluding Hungary,540 pg/mL
same,"Plasma norepinephrine, change from baseline to Week 4, Mean ±SEM",Europe excluding Hungary,-126 pg/mL
same,"Plasma norepinephrine, change from baseline to Week 4, Median",Europe excluding Hungary,-129 pg/mL
same,"Norepinephrine, Baseline Mean ± SD",[1],753 ± 375 pg/mL
same,"Norepinephrine, Baseline Median",[1],691 pg/mL
same,"Norepinephrine, Week 12 Mean ± SD",[1],683 ± 318 pg/mL
same,"Norepinephrine, Week 12 Median",[1],611 pg/mL
same,"Norepinephrine, Week 24 Mean ± SD",[1],798 ± 459 pg/mL
same,"Norepinephrine, Week 24 Median",[1],729 pg/mL
same,"Plasma norepinephrine, Week 4 Mean",Hungary,576 pg/mL
same,"Plasma norepinephrine, Week 4 Median",Hungary,525 pg/mL
same,"Plasma norepinephrine, change from baseline to Week 4, Mean ±SEM",Hungary,-208 pg/mL
same,"Plasma norepinephrine, change from baseline to Week 4, Median",Hungary,−213* pg/ml
same,"Norepinephrine, Baseline Mean ± SD",Hungary (n = 33),767 ± 270 pg/mL
same,"Norepinephrine, Baseline Median",Hungary (n = 33),792 pg/mL
same,"Norepinephrine, Week 12 Mean ± SD",Hungary (n = 33),638 ± 254 pg/mL
same,"Norepinephrine, Week 12 Median",Hungary (n = 33),690 pg/mL
same,"Norepinephrine, Week 24 Mean ± SD",Hungary (n = 33),711 ± 267 pg/mL
same,"Norepinephrine, Week 24 Median",Hungary (n = 33),736 pg/mL
same,"Plasma norepinephrine, Week 4 Mean",U.S.,529 pg/mL
same,"Plasma norepinephrine, Week 4 Median",U.S.,473 pg/mL
same,"Plasma norepinephrine, change from baseline to Week 4, Mean ±SEM",U.S.,-136 pg/mL
same,"Plasma norepinephrine, change from baseline to Week 4, Median",U.S.,-101 pg/mL
same,"Norepinephrine, Baseline Mean ± SD",U.S. (n = 127),650 ± 362 pg/mL
same,"Norepinephrine, Baseline Median",U.S. (n = 127),598 pg/mL
same,"Norepinephrine, Week 12 Mean ± SD",U.S. (n = 127),529 ± 267 pg/mL
same,"Norepinephrine, Week 12 Median",U.S. (n = 127),466 pg/mL
same,"Norepinephrine, Week 24 Mean ± SD",U.S. (n = 127),585 ± 336 pg/mL
same,"Norepinephrine, Week 24 Median",U.S. (n = 127),498 pg/mL
same,Degree of reduction in NE by median values,"Week 4, Hungary",213 pg/mL
same,Degree of reduction in NE by median values,"Week 4, U.S.",101 pg/mL
same,Degree of reduction in NE by median values,"Week 4, rest of Europe",121 pg/mL
same,Reduction in NE,"Week 12, Canada",100 pg/mL
same,Reduction in NE,"Week 24, Canada",21 pg/mL
same,Reduction in NE,"Week 24, Hungary",193 pg/mL
same,Reduction in NE,"Week 24, U.S.",46 pg/mL
same,"Norepinephrine, ΔWeek 12 Mean ± SEM",Canada (n = 59),-133 ± 48 pg/mL
same,"Norepinephrine, ΔWeek 12 Median",Canada (n = 59),-100 pg/mL
same,"Norepinephrine, ΔWeek 24 Mean ± SEM",Canada (n = 59),-38 ± 54 pg/mL
same,"Norepinephrine, ΔWeek 24 Median",Canada (n = 59),-21 pg/mL
same,"Norepinephrine, ΔWeek 12 Mean ± SEM",Entire Cohort (n = 267),-118 ± 27 pg/mL
same,"Norepinephrine, ΔWeek 12 Median",Entire Cohort (n = 267),-100 pg/mL
same,"Norepinephrine, ΔWeek 24 Mean ± SEM",Entire Cohort (n = 267),-64 ± 31 pg/mL
same,"Norepinephrine, ΔWeek 24 Median",Entire Cohort (n = 267),-47 pg/mL
same,"Norepinephrine, ΔWeek 12 Mean ± SEM",[1],-34 ± 51 pg/mL
same,"Norepinephrine, ΔWeek 12 Median",[1],-55 pg/mL
same,"Norepinephrine, ΔWeek 24 Mean ± SEM",[1],56 ± 152 pg/mL
same,"Norepinephrine, ΔWeek 24 Median",[1],-82 pg/mL
same,"Norepinephrine, ΔWeek 12 Mean ± SEM",Hungary (n = 33),-172 ± 63 pg/mL
same,"Norepinephrine, ΔWeek 12 Median",Hungary (n = 33),-171 pg/mL
same,"Norepinephrine, ΔWeek 24 Mean ± SEM",Hungary (n = 33),-132 ± 296 pg/mL
same,"Norepinephrine, ΔWeek 24 Median",Hungary (n = 33),-193 pg/mL
same,"Norepinephrine, ΔWeek 12 Mean ± SEM",U.S. (n = 127),-128 ± 49 pg/mL
same,"Norepinephrine, ΔWeek 12 Median",U.S. (n = 127),-86 pg/mL
same,"Norepinephrine, ΔWeek 24 Mean ± SEM",U.S. (n = 127),-86 ± 40 pg/mL
same,"Norepinephrine, ΔWeek 24 Median",U.S. (n = 127),-46 pg/mL
same,Degree of reduction in NE by median values,"week 4, entire cohort",101 pg/mL
same,Reduction in NE,"week 24, entire cohort",47 pg/mL
